Data published in patent publication US9265774B2, “Methods, compounds and pharmaceutical compositions for treating anxiety and mood disorders” (New York University, priority 2011, dated 2016).

Columns and labels:
[1] = system: repeated open-space swim model; test: Repeated open-space (forced) swim test; assay type: in vivo, mice; conditions: acute i.p., dp6FNE at 1, 3 and 10 mg/kg given along with phentolamine 5 mg/kg i.p.
Text: (§1) The first test involves an acute stress-induced model of depression (Steru, et al., Psychopharmacology 1985; 85: 367-370) whereas the second, a more prolonged, chronic depression that is more akin to chronic human depression (Stone, et al., Pharmacol Biochem Behav 2008; 91: 190-195).

[2] = system: Fos expression in the PVH; test: Fos expression in the PVH in the tail suspension test; assay type: in vivo, mice; conditions: dp6FNE 3 mg/kg i.p. before a 6 min tail suspension test, with prazosin 0.2 mg/kg
Method: (§2) In the RFS study, mice were subjected to 4 daily 15 min swims as described above and were injected i.p. with either vehicle or dp6FNE (3 mg/kg) 15 min prior to the 5th swim. In the TST study, animals were injected similarly before a 6 min test. […] The animals were anesthetized and perfused for immuno-histochemistry 70 min after the start of the swim or tail suspension. Brains were processed as described previously for double-label immunofluorescent Fos/tyrosine hydroxylase staining of all sections through the LC and for single-label Fos staining through the full PVH (Stone et al., Brain Res (2009) 1291: 21-31). […] In the tail suspended mice the analogous reductions were 53.5±7.2% (LC) and 36.7±3.1 (PVH). […] These findings thus indicate that a dose of […] dp6FNE that has preferential inhibitory effects on the LC during depression exists.

Fos expression in the LC [3] = test: Fos expression in the LC in the tail suspension test; assay type: in vivo, mice; conditions: dp6FNE 3 mg/kg i.p. before a 6 min tail suspension test, with prazosin 0.2 mg/kg
Method: as §2

[4] = system: CMS reduction of intake of sweetened milk; test: Chronic mild stress (CMS)-anhedonia model, consumption of sweetened milk; assay type: in vivo; conditions: acute i.p. dp6FNE
[5] = system: immobility in tail suspension test; test: Tail suspension test (TST); assay type: in vivo, mice
Method: In the RFS study, mice were subjected to 4 daily 15 min swims as described above and were injected i.p. with either vehicle or dp6FNE (3 mg/kg) 15 min prior to the 5th swim. In the TST study, animals were injected similarly before a 6 min test. […] The animals were anesthetized and perfused for immuno-histochemistry 70 min after the start of the swim or tail suspension. Brains were processed as described previously for double-label immunofluorescent Fos/tyrosine hydroxylase staining of all sections through the LC and for single-label Fos staining through the full PVH (Stone et al., Brain Res (2009) 1291: 21-31).
To determine if dp6FNE was active in a more traditional test of antidepressant activity, it was given as above 15 min prior to a tail suspension test.
as §1

Fos expression in the LC [6] = test: Fos expression in the LC during the RFS model; assay type: in vivo, mice; conditions: dp6FNE 3 mg/kg i.p. 15 min prior to the 5th swim, with prazosin 0.2 mg/kg; swum animals, versus vehicle
Method: as §2

Structure (SMILES): CC(C)(C)C(=O)Oc1cc(F)c(C(O)CN)cc1OC(=O)C(C)(C)C (stereo not drawn) [dp6FNE, dipivalyl-6-fluoronorepinephrine]
- acute effect in the repeated open-space swim test [1]: strong effect
- acute effect in the repeated open-space swim test ([1]; listed as 6dpFNE): significant antidepressant action
- reduction in gene expression (Fos) in the PVH [2]: 36.7±3.1
- reduction in gene expression (Fos) in the LC (Fos expression in the LC [3]): 53.5±7.2%
- effect on CMS reduction of sweetened milk intake [4]: eliminates the CMS reduction of intake
- effect on food intake (hypophagia) [4]: significant hypophagia
- immobility in tail suspension test ([5]; 3 mg/kg i.p. with prazosin 0.2 mg/kg, 15 min prior to test): significant reduction of immobility
- antidepressant action in the tail suspension test ([5]; i.p. at doses of 1, 3 and 10 mg/kg, given along with phentolamine 5 mg/kg i.p.): significant antidepressant action
- reduction in gene expression (Fos) in the LC (Fos expression in the LC [6]): 33.6±6.8
